Reference: patent US4539329A, “7'-Trifluoromethyl-spiro[imidazolidine-4,3'-indoline]-2,2',5-triones as aldose reductase inhibitors” (Imperial Chemical Industries, plc, priority 1982, dated 1985)

Target: T1, aldose reductase (Bos taurus, UniProt P16116)
T1 construct: purified aldose reductase is isolated in known manner from bovine lenses; from tissue; host or cells: bovine lens
Assay: in vitro inhibition of purified aldose reductase from bovine lenses (reduction of glucose to sorbitol, spectrophotometric)
Type: biochemical
Conditions: aldose reductase preparation obtained from bovine lenses; read-out: concentration producing a 50% reduction in the conversion of glucose to sorbitol
Protocol: Thus, purified aldose reductase is isolated in known manner from bovine lenses. The percentage inhibition of this enzyme's ability in vitro to reduce aldoses to polyhydric alcohols, and particularly to reduce glucose to sorbitol, caused by a test compound is then determined using standard spectrophotometric methods. In this test the compounds of formula I in general show significant inhibition of the enzyme aldose reductase at a concentration of about 10^-8 M.

IC50: 10.5 nM
Structure (SMILES): O=C1NC(=O)C2(N1)C(=O)N(Cc1ccc(Br)cc1F)c1c(C(F)(F)F)cccc12 (racemic) [A, 1'-(4-bromo-2-fluorobenzyl)-7'-(trifluoromethyl)-spiro[imidazolidine-4,3'-indoline]-2,2',5-trione]
